Measurements as given in US20240210412A1, “SULFONYL-TRIAZOLE COMPOUNDS USEFUL AS LIGANDS AND INHIBITORS OF PROSTAGLANDIN REDUCTASE 2” (University of Virginia Patent Foundation, priority 2021, published 2024).
“Also recorded” adds a separate entry of the source.

Key:
PTGR2 = target: T1, PTGR2 (Homo sapiens, UniProt Q8N8N7); experiment: gel-based ABPP, HHS-475 probe, HEK293T cells expressing recombinant PTGR2; type: cell-based; settings: live HEK293T cells, ligand 25 μM or varying, 2 h; HHS-475 100 μM
T1 construct: host or cells: HEK293T
Method: HEK293T cells at 30-50% confluency were transfected with 2.6 μg of FAH or PTGR2 plasmid DNA in a serum-free media/polyethyleneimine solution for 48 hrs. The cells were washed once with warm, sterile DPBS (1×, 5 mL), and then 10 mL of serum-free media (supplemented with 1% L-glutamine) containing either DMSO or SuTEx fragment (in DMSO) was added. After 2 hrs, the cells were treated with 100 μM of SuTEx alkyne probe (HHS-475, 10 μL of 1000× DMSO stock) and incubated for an additional 2 hrs. The media was aspirated and cells washed with cold PBS (5 mL) and harvested. Cells were spun at 500×g for 5 min at 4° C. and supernatant was removed. Pellets were resuspended in 1 mL of cold DPB S and spun at 1,400×g for 3 min at 4° C. and supernatant was removed. The cells were lysed in PBS by sonication and fractionated (100,000×g, 45 min, 4° C.). The soluble fraction was diluted to 1 mg/mL in PBS and 49 μL was used for analysis. […] The samples were analyzed by SDS-PAGE (30 μL) and imaged by in-gel fluorescence scanning.
Confirmatory studies were also performed on prostaglandin reductase 2 (PTGR2) because of its role in the reduction of the bioactive lipid, 15-keto-PGE2^[17]. […] The remaining fluorescent signal detected on PTGR2 Y100F mutant protein is likely due to probe labeling of additional tyrosine sites identified on wild-type protein.
To assess the PTGR2 inhibitory activity of AMC-0702 and AMC-0703, HEK293T cells expressing PTGR2 were pretreated with vehicle, HHS-0101 (25 μM), HHS-0701 (25 μM), AMC-0702 (25 μM-0.1 μM), or AMC-0703 (25 μM-0.1 μM) for 2 hours followed by HHS-475 probe labelling in live cells (25 μM, 2 hours). Cells were lysed and probe-modified PTGR2 in proteomes detected by copper-catalyzed azide-alkyne cycloaddition conjugation of rhodamine-azide, SDS-PAGE, and in-gel fluorescence scanning. Inhibitory activity of compounds is determined by reductions in fluorescent band intensity from HHS-475 probe labeling of proteins detected in proteomes. […]

P22626 = experiment: SILAC LC-MS ABPP; type: cell-based, human; settings: 25 μM 2 h, live DM93 cells
Method: Cells were grown to 90-95% confluence before being washed once with warm, sterile DPBS (1×, 5 mL), followed by addition of 10 mL of serum-free media (supplemented with 1% L-glutamine) containing either DMSO or SuTEx fragment (in DMSO) was added. Light cells were treated with DMSO vehicle while the heavy cells were treated with DMSO or SuTEx fragment (in DMSO) and incubated for 2 hrs. After 2 hrs, the cells were treated with SuTEx alkyne probe (HHS475, 10 μL of 1000× DMSO stock) and incubated for an additional 2 hrs. The media was aspirated and cells washed with cold PBS (5 mL) and harvested. Cells were spun at 500×g for 5 min at 4° C. followed by removal of supernatant. Pellets were resuspended in 1 mL of cold DPBS and spun at 1,400×g for 3 min at 4° C. followed by removal of supernatant. The cells were lysed in PBS by sonication and fractionated (100,000×g, 45 min, 4° C.).The light and heavy soluble fractions were diluted to 2.3 mg/mL in PBS and 432 μL were used for analysis (1 mg total protein). The probe-modified proteomes were conjugated to desthiobiotin-PEG3-azide (10 μl of 10 mM stock in DMSO; 200 μM final concentration) using TCEP (10 μl of fresh 50 mM stock in water, 1 mM final concentration), TBTA ligand (33 μl of a 1.7 mM 4:1 t-butanol/DMSO stock, 100 μM final concentration) and CuSO4 (10 μl of 50 mM stock, 1 mM final concentration). Samples were vortexed to mix and incubated for 1 hr at room temperature. The heavy and light proteomes were mixed 1:1 and the subsequent steps, including LC-MS/MS data analysis, were performed as previously described^[8a].
Coupling cell-based screens with chemical proteomics can facilitate the identification of target protein and binding sites that engage and are irreversibly modified by covalent ligands^[12]. In these assays, covalent ligands block SuTEx activity-based probe (ABP) labeling at protein sites, and the competition of probe labeling can be used to quantify potency and selectivity across the proteome^[10a]. To facilitate quantitative chemical proteomics, DM93 melanoma cells were cultured using stable isotopic labeling by amino acids in cell culture (SILAC)^[13]. Cells cultured in “light” media were treated with dimethyl sulfoxide (DMSO) vehicle while cells cultured in “heavy” media were treated with SuTEx ligand (25 μM, 2 hours, 37° C.). Next, cells were treated with HHS-475 probe (100 μM, 2 hours, 37° C.) followed by lysis and processing of proteomes for analysis. Probe-modified proteins from the soluble fraction were conjugated to a desthiobiotin-azide tag by copper-catalyzed azide-alkyne cycloaddition (CuAAC)^[14] followed by mixing of the light and heavy proteomes. The combined proteomes were digested with trypsin protease to produce probe-modified peptides, followed by enrichment and purification by avidin affinity chromatography. Probe-modified peptides were resolved, identified, and quantified by high-resolution liquid chromatography-tandem mass spectrometry (LC-MS/MS). Resultant data were analyzed as previously described^[8a, 10a]. Table 2, below, lists sites of modification targeted by sulfonyl-triazole compounds HHS-0101, HHS-0201, HHS-0301, HHS-0401, and HHS-0701. The format of the table is as follows: protein Uniprot accession number (see uniprot.org); tyrosine site (amino acid position) modified; treatment (sulfonyl-triazole compound identification number, followed by Y (where if multiple compounds modify the same site, the compounds are separated by vertical lines).

T1 sequence (Q8N8N7 whole entry): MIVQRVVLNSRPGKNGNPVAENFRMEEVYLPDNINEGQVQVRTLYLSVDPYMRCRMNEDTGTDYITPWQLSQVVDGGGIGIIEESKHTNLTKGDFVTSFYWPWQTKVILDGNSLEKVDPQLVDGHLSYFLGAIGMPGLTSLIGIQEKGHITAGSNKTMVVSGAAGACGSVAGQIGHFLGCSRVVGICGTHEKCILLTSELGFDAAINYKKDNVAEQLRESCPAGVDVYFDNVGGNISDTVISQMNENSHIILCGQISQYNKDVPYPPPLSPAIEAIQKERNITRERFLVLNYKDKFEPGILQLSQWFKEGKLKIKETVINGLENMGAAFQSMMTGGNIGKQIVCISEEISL

Structure (SMILES)	blockade of HHS-475 labeling of PTGR2 (PTGR2)	liganded tyrosine site 262 (P22626)	liganded tyrosine site 244 (P22626)	liganded tyrosine site 247 (P22626)	liganded tyrosine site 283 (P22626)
O=C(NC1CC1)c1ccc(S(=O)(=O)n2cncn2)cc1 [HHS-0101, 4-((1H-1,2,4-triazol-1-yl)sulfonyl)-N-cyclopropylbenzamide]	not	HHS0101.Y (tyrosine sites that showed >80% reductions (SR >5) in probe labeling in cells treated with compounds (liganded sites))	–	–	–
O=C(NCC1CC1)c1ccc(S(=O)(=O)n2cncn2)cc1 [HHS-0201, 4-((1H-1,2,4-triazol-1-yl)sulfonyl)-N-(cyclopropylmethyl)benzamide]	–	–	HHS0201.Y (tyrosine sites that showed >80% reductions (SR >5) in probe labeling in cells treated with compounds (liganded sites))	HHS0201.Y (tyrosine sites that showed >80% reductions (SR >5) in probe labeling in cells treated with compounds (liganded sites))	HHS0201.Y (tyrosine sites that showed >80% reductions (SR >5) in probe labeling in cells treated with compounds (liganded sites))
O=C(c1ccc(S(=O)(=O)n2cncn2)cc1)N1CCC(c2ccccc2)CC1 [HHS-0701, (4-((1H-1,2,4-triazol-1-yl)sulfonyl)phenyl)(4-phenylpiperidin-1-yl)methanone]	could block HHS-475 labeling of PTGR2; also recorded: concentration-dependent blockade of probe labeling	–	–	–	–
